Data: PubChem BioAssay (NCI)
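Five compound concentrations were applied to cells in 96-well plates for 48 hours; endpoints were derived by simple linear interpolation of the resulting dose-response curve. GI50: concentration for 50% inhibition of growth. TGI is the concentration that stops growth completely.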

How the values were obtained:
Assay in all cases: NCI tumour cell line growth inhibition, 48 h
[1] = tested on: UACC-62 melanoma
[2] = tested on: SK-MEL-28 melanoma
[3] = tested on: OVCAR-4 ovarian
[4] = tested on: NCI-H23 lung
[5] = tested on: U251 CNS
[6] = tested on: NCI-H226 lung
[7] = tested on: M14 melanoma
[8] = tested on: CCRF-CEM leukemia
[9] = tested on: UO-31 renal
[10] = tested on: SNB-19 CNS

| Structure (SMILES) | TGI [1] | TGI [2] | TGI [3] | TGI [4] | TGI [5] | TGI [6] | TGI [7] | TGI [8] | TGI [9] | TGI [10] | GI50 [1] | GI50 [2] | GI50 [3] | GI50 [4] | GI50 [5] | GI50 [6] | GI50 [7] | GI50 [8] | GI50 [9] | GI50 [10] |
| --- | --- | --- | --- | --- | --- | --- | --- | --- | --- | --- | --- | --- | --- | --- | --- | --- | --- | --- | --- | --- |
| O=C1C2c3[nH]c4ccccc4c3C3CCC(c4ccccc4)CC3C2C(=O)N1c1ccccc1 (stereo not given) | > 100 µM | > 100 µM | > 100 µM | > 100 µM | > 100 µM | > 100 µM | > 100 µM | > 100 µM | > 100 µM | > 100 µM |  |  |  |  |  |  |  |  |  |  |
| CCCCCCCCCCCCCCCCCc1cc(Cl)nc(Cl)n1 | > 100 µM | > 100 µM | > 100 µM | > 100 µM | > 100 µM | > 100 µM | > 100 µM | > 100 µM | > 100 µM | > 100 µM |  |  |  |  |  |  |  |  |  |  |
| COc1ccc2c(c1)O/C(=C\c1ccc([N+](=O)[O-])o1)C2=O | 3.54 µM | 5.02 µM | 6.5 µM | 5.81 µM | 6.56 µM | 23.6 µM | 3.74 µM | 1.7 µM | 4.3 µM | > 100 µM | 1.59 µM | 2.17 µM | 1.87 µM | 1.99 µM | 1.98 µM | 3.44 µM | 1.64 µM | 0.34 µM | 1.41 µM | 3.09 µM |
| CCN(CC)c1ccc(CNc2cc(C)nc3ccc(OC)cc23)cc1 | 3.67 µM | 3.38 µM | 16.5 µM | 9.8 µM | 4.3 µM | 14.4 µM | 3.7 µM | 10.2 µM | 6.23 µM | 16.3 µM | 1.72 µM | 1.86 µM | 5 µM | 2.7 µM | 2.04 µM | 3.12 µM | 1.89 µM | 2.78 µM | 1.75 µM | 3.98 µM |
| CC[C@]12C=CCN3CC[C@@]4(c5ccc(OC)cc5N(C)[C@H]4[C@@](O)(C(=O)OC)[C@@H]1OC(=O)CCCC[P+](c1ccccc1)(c1ccccc1)c1ccccc1)[C@@H]32 | 1.54 µM | 1.84 µM | 10.8 µM | 10.5 µM | 4.4 µM | 9.74 µM | 4.13 µM | 6.46 µM | 26.4 µM | 2.92 µM | 0.374 µM | 0.52 µM | 0.342 µM | 1.07 µM | 0.441 µM | 2.12 µM | 1.45 µM | 0.789 µM | 12.8 µM | 0.384 µM |
| CCCCCCCCCCCCCCCCSS(C)(=O)=O | > 57.5 µM | 25.4 µM | 54.7 µM | > 75.8 µM | > 100 µM | > 35.3 µM | 25.2 µM | 18.4 µM | 35.7 µM | > 100 µM |  |  |  |  |  |  |  |  |  |  |
| COc1ccccc1CN=C1NC(=O)/C(=C/c2ccc3ncccc3c2)S1 | > 25 µM | > 25 µM | > 25 µM | > 25 µM | > 16.1 µM | > 25 µM | > 25 µM | > 25 µM | > 21.7 µM | > 25 µM | 8.61 µM | > 15.3 µM | 8.88 µM | 8.65 µM | 4.51 µM | 8.43 µM | 14.5 µM | 7.01 µM | 7.37 µM | 4.01 µM |
| Cc1cc(C)nc(NS(=O)(=O)c2ccc(Nc3nc4nc(NCc5ccccc5)nc(-c5ccc(O)cc5)c4c(=O)[nH]3)cc2)n1 | > 100 µM | > 100 µM | > 100 µM | > 100 µM | > 100 µM | > 100 µM | > 100 µM | > 100 µM | > 100 µM | > 100 µM | 25.2 µM | 13.4 µM | 32.1 µM | 79.7 µM | 36.7 µM | 55.8 µM | 37.5 µM | 54.6 µM | 6.39 µM | 27.4 µM |
| CN(C(=N)c1ccccc1)c1ccccc1 | > 100 µM | > 100 µM | > 100 µM | > 100 µM | > 100 µM | > 100 µM | > 100 µM | > 100 µM | > 100 µM | > 100 µM |  |  |  |  |  |  |  |  |  |  |
| CC(=O)CC(=O)ON(C)C(C)=O | > 100 µM | > 100 µM | 89.1 µM | > 100 µM | > 100 µM | > 100 µM | > 100 µM | > 100 µM | > 100 µM | > 100 µM |  |  |  |  |  |  |  |  |  |  |
| Nc1nc(=O)c2[nH]cnc2n1O | > 100 µM | > 100 µM | > 100 µM | > 100 µM | > 100 µM | > 100 µM | > 100 µM | > 100 µM | > 100 µM | > 100 µM |  |  |  |  |  |  |  |  |  |  |
| Cc1cc(NCCCNc2ccnc3cc(Cl)ccc23)nc(Nc2ccc(C(=O)N3CCCCC3)cc2)n1 | 3.81 µM | 3.75 µM | 12.6 µM | 18.6 µM | 4.92 µM | 36.9 µM | 4.06 µM | 8.4 µM | 5.87 µM | 12.5 µM | 2.02 µM | 2 µM | 2.83 µM | 4.38 µM | 2.25 µM | 21.8 µM | 2.12 µM | 2.48 µM | 2.16 µM | 3.55 µM |
| O=c1[nH]ccc2nc(N3CCC(O)CC3)nc(Nc3ccc(N4CCOCC4)cc3)c12 | > 100 µM | > 100 µM | > 100 µM | > 100 µM | > 100 µM | > 100 µM | > 100 µM | > 100 µM | > 100 µM | > 100 µM | 20.5 µM | > 100 µM | > 100 µM | 8.71 µM | > 81 µM | > 100 µM | 0.351 µM | 28.3 µM | 0.374 µM | > 78.8 µM |
| COc1ccc(-c2cc(=O)c3c(OC)c(O)c(OC)cc3o2)cc1 | > 100 µM | > 100 µM | > 100 µM | > 100 µM | > 100 µM | > 100 µM | > 100 µM | > 100 µM | > 100 µM | > 100 µM |  |  |  |  |  |  |  |  |  |  |
| NC(N)=NS(=O)(=O)c1ccc(NC(=O)c2cccn3c(=O)c4ccccc4nc23)cc1 | > 100 µM | > 100 µM | > 100 µM | > 100 µM | > 100 µM | > 100 µM | > 100 µM | 88 µM | > 100 µM | > 100 µM |  |  |  |  |  |  |  |  |  |  |
| Clc1cc2nc[nH]c2cc1Cl | > 100 µM | > 100 µM | > 100 µM | > 100 µM | > 100 µM | > 100 µM | > 100 µM | > 100 µM | > 100 µM | > 100 µM |  |  |  |  |  |  |  |  |  |  |
